# Test results: patent US8597649B2, “Antagonist antibodies directed against calcitonin gene-related peptide and methods using same” (Labrys Biologics, Inc., priority 2005, dated 2013)
# How the values were obtained:
# [1] = tested on: skin vasodilatation induced by stimulation of rat saphenous nerve; assay: skin vasodilatation induced by stimulation of rat saphenous nerve; format: in vivo; details: 400 nmol/kg i.v., 3-5 min before stimulation, compared to the control (FIG. 2A, 2B)
# Procedure: To test antagonist activity of anti-CGRP antibodies, effect of the antibodies on skin vasodilatation by stimulation of rat saphenous nerve was tested using a rat model described previously. Escott et al., Br. J. Pharmacol. 110:772-776, 1993. In this rat model, electrical stimulation of saphenous nerve induces release of CGRP from nerve endings, resulting in an increase in skin blood flow. Blood flow in the foot skin of male Sprague Dwaley rats (170-300 g, from Charles River Hollister) was measured after saphenous nerve stimulation. Rats were maintained under anesthesia with 2% isoflurane. Bretylium tosylate (30 mg/kg, administered i.v.) was given at the beginning of the experiment to minimize vasoconstriction due to the concomitant stimulation of sympathetic fibers of the saphenous nerve. Body temperature was maintained at 37° C. by the use of a rectal probe thermostatically connected to a temperature controlled heating pad. […]
# For experiments shown in FIGS. […] Skin blood flow, measured as blood cell flux, was monitored with a laser Doppler flow meter. […]
# For experiments shown in FIGS. 4A and 4B, saphenous nerve was exposed surgically before antibody administration. […] Skin blood flow, measured as blood cell flux, was monitored with a laser Doppler flow meter. […]
# [2] = tested on: middle meningeal artery (MMA) dilation evoked by electrical field stimulation; assay: Dural artery (closed cranial window) assay; format: in vivo; details: rat, i.v.
# Procedure: Closed Cranial Window Model: The purpose of this experiment was to determine the acute effect of anti-CGRP antagonist antibodies and compare it with the acute effect of the CGRP receptor antagonist BIBN4096BS. Experiments were carried out as previously described (Williamson et al., Cephalalgia 17(4):518-24 (1997)) with the following modifications. Sprague Dawley rats (300-400 g) were anesthetized with 70 mg/kg i.p. pentobarbital. Anesthesia was maintained with 20 mg/kg/hr i.v. pentobarbital. Rats were cannulated through the jugular vein for delivery of all drugs. Blood pressure was monitored with a probe (mikro-tip catheter, Millar Instruments) threaded through the femoral artery into the abdominal aorta. The rats were tracheotomized and breathing rate was maintained at 75 breaths per minute at a volume of 3.5 mL. After fixating the head in a stereotactic instrument and removing the scalp, a 2×6 mm window in the left parietal area just lateral to the sagittal suture was made by thinning the bone with a dental drill. […] Lateral to the electrode window another window of 5×6 mm was created and filled with heavy mineral oil through which the diameter of a branch of the middle meningeal artery (MMA) was continuously monitored with a CCD camera and a video dimension analyzer (Living Systems). […] All data was recorded using chart software (ADInstruments). […]
Compound,blood flow increase stimulated by applying electronic pulses on saphenous nerve [1],time after dosing by which the effect has completely disappeared ([2]; 300 μg/kg BIBN4096BS (FIG. 9)),"block of MMA dilation evoked by electrical field stimulation ([2]; acute, 10 mg/kg mu7E9, 300 μg/kg BIBN4096BS (FIG. 9))"
CGRP 8-37: Positive control compound CGRP 8-37 (vasodilatation antagonist) (VTHRLAGLLSRSGGVVKNNFVPTNVGSKAF) [reference compound],inhibited,–,–
NCCCC[C@H](NC(=O)[C@@H](Cc1cc(Br)c(O)c(Br)c1)NC(=O)N1CCC(N2Cc3ccccc3NC2=O)CC1)C(=O)N1CCN(c2ccncc2)CC1 [BIBN4096BS],–,≤ 90 min,blocks
